Results from patent US9980943B2, “Methods of treating muscular dystrophy” (BOARD OF REGENTS OF THE NEVADA SYSTEM OF HIGHER EDUCATION, …, priority 2013, dated 2018).

How the values were obtained:
Type in all cases: cell-based, mouse
[1] = tested on: α7 integrin (LacZ reporter in α7+/LacZ myotubes); assay: Myotube α7 integrin FDG assay (Burkin assay in myotubes, 96-well); conditions: for Burkin Assay in Myotubes, value relative to DMSO: SU9516 analogs, 96-well, N=3-6
[2] = tested on: α7 integrin (LacZ reporter in α7βgal+/− myoblasts); assay: Myoblast α7+/LacZ integrin FDG assay (Burkin assay in myoblasts, 96-well); conditions: 96-well; for Burkin Assay in Myoblasts, value relative to DMSO: SU9516 analogs, N=3-6; for Burkin Assay in Myoblasts, signal relative to DMSO: α7+/LacZ myoblasts
[3] = tested on: β-galactosidase in CMV-LacZ C2C12 myoblasts; assay: CMV-LacZ secondary screen in C2C12 myoblasts (β-Gal stabilizing assay); conditions: for CMV-LACZ in Myoblasts, value relative to DMSO: SU9516 analogs, C2C12 CMV-LacZ, N=2; for CMV-LACZ in Myoblasts (β-galactosidase activity relative to DMSO): CMV-LacZ C2C12 myoblasts
Summary of the method: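 First, C2C12 myoblasts were transfected with a linearized CMV-LACZ vector and clonal lines selected by FDG β-gal assay. Then cells were exposed to compounds at 0.5, 1, 5, 10, 20 and 40 μM in 96-well format, two replicates each, and β-gal measured.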

[4] = tested on: β-galactosidase in CMV-LacZ C2C12 myotubes; assay: CMV-LacZ secondary screen in C2C12 myotubes (β-Gal stabilizing assay); conditions: for CMV-LACZ in Myotubes, value relative to DMSO: SU9516 analogs, C2C12 CMV-LacZ, N=2; for CMV-LACZ in Myotubes, signal relative to DMSO: C2C12 CMV-LacZ myotubes, fold relative to DMSO
Summary of the method: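 CMV-LacZ C2C12 line (clonal, FDG-screened); myoblasts/myotubes dosed 0.5–40 μM (0.5, 1, 5, 10, 20, 40 μM); n=2 per point; β-gal stabilization read-out.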

## CCOc1cc2c3c(c1)C(C)=CC(C)(C)N3C(=O)C2=O [MLS000710233-01]
[1]; 0.5 uM
  Burkin Assay in Myotubes, value relative to DMSO: 1.11
[1]; 1 uM
  Burkin Assay in Myotubes, value relative to DMSO: 1.033
[1]; 5 uM
  Burkin Assay in Myotubes, value relative to DMSO: 0.9331
[1]; 10 uM
  Burkin Assay in Myotubes, value relative to DMSO: 0.8688
[1]; 20 uM
  Burkin Assay in Myotubes, value relative to DMSO: 0.6933
[1]; 40 uM
  Burkin Assay in Myotubes, value relative to DMSO: 0.6295
[2]; 0.5 uM
  Burkin Assay in Myoblasts, value relative to DMSO: 1.17
[2]; 1 uM
  Burkin Assay in Myoblasts, value relative to DMSO: 1.159
[2]; 5 uM
  Burkin Assay in Myoblasts, value relative to DMSO: 0.8066
[2]; 10 uM
  Burkin Assay in Myoblasts, value relative to DMSO: 0.5637
[2]; 20 uM
  Burkin Assay in Myoblasts, value relative to DMSO: 0.1723
[2]; 40 uM
  Burkin Assay in Myoblasts, value relative to DMSO: 0.1743
[3]; 0.5 uM
  CMV-LACZ in Myoblasts, value relative to DMSO: 1.0173
[3]; 1 uM
  CMV-LACZ in Myoblasts, value relative to DMSO: 0.8263
[3]; 5 uM
  CMV-LACZ in Myoblasts, value relative to DMSO: 0.8263
[3]; 10 uM
  CMV-LACZ in Myoblasts, value relative to DMSO: 0.8509
[3]; 20 uM
  CMV-LACZ in Myoblasts, value relative to DMSO: 0.8530
[3]; 40 uM
  CMV-LACZ in Myoblasts, value relative to DMSO: 0.8779
[4]; 0.5 uM
  CMV-LACZ in Myotubes, value relative to DMSO: 0.8781
[4]; 1 uM
  CMV-LACZ in Myotubes, value relative to DMSO: 0.9410
[4]; 5 uM
  CMV-LACZ in Myotubes, value relative to DMSO: 0.9060
[4]; 10 uM
  CMV-LACZ in Myotubes, value relative to DMSO: 1.0698
[4]; 20 uM
  CMV-LACZ in Myotubes, value relative to DMSO: 1.1130
[4]; 40 uM
  CMV-LACZ in Myotubes, value relative to DMSO: 1.1380

## CC1CCCCC1NC(=O)CSc1nnc(COc2ccc(Cl)cc2)o1 (stereo not drawn) [MLS000948055-01]
[1]; 0.5 uM
  Burkin Assay in Myotubes, α7 integrin LacZ reporter signal relative to DMSO: 1.067
[1]; 1 uM
  Burkin Assay in Myotubes, α7 integrin LacZ reporter signal relative to DMSO: 1.054
[1]; 5 uM
  Burkin Assay in Myotubes, α7 integrin LacZ reporter signal relative to DMSO: 0.9053
[1]; 10 uM
  Burkin Assay in Myotubes, α7 integrin LacZ reporter signal relative to DMSO: 0.8264
[1]; 20 uM
  Burkin Assay in Myotubes, α7 integrin LacZ reporter signal relative to DMSO: 0.98
[1]; 40 uM
  Burkin Assay in Myotubes, α7 integrin LacZ reporter signal relative to DMSO: 0.7514
[2]; 0.5 uM
  Burkin Assay in Myoblasts, signal relative to DMSO: 1.328
[2]; 1 uM
  Burkin Assay in Myoblasts, signal relative to DMSO: 1.053
[2]; 5 uM
  Burkin Assay in Myoblasts, signal relative to DMSO: 1.136
[2]; 10 uM
  Burkin Assay in Myoblasts, signal relative to DMSO: 0.8986
[2]; 20 uM
  Burkin Assay in Myoblasts, signal relative to DMSO: 0.8213
[2]; 40 uM
  Burkin Assay in Myoblasts, signal relative to DMSO: 0.5867
[3]; 0.5 uM
  CMV-LACZ in Myoblasts (β-galactosidase activity relative to DMSO): 0.7540
[3]; 1 uM
  CMV-LACZ in Myoblasts (β-galactosidase activity relative to DMSO): 0.9674
[3]; 5 uM
  CMV-LACZ in Myoblasts (β-galactosidase activity relative to DMSO): 1.0787
[3]; 10 uM
  CMV-LACZ in Myoblasts (β-galactosidase activity relative to DMSO): 1.0993
[3]; 20 uM
  CMV-LACZ in Myoblasts (β-galactosidase activity relative to DMSO): 0.5407
[3]; 40 uM
  CMV-LACZ in Myoblasts (β-galactosidase activity relative to DMSO): 0.5522
[4]; 0.5 uM
  CMV-LACZ in Myotubes, signal relative to DMSO: 1.0895
[4]; 1 uM
  CMV-LACZ in Myotubes, signal relative to DMSO: 0.9638
[4]; 5 uM
  CMV-LACZ in Myotubes, signal relative to DMSO: 1.2519
[4]; 10 uM
  CMV-LACZ in Myotubes, signal relative to DMSO: 1.1022
[4]; 20 uM
  CMV-LACZ in Myotubes, signal relative to DMSO: 1.2212
[4]; 40 uM
  CMV-LACZ in Myotubes, signal relative to DMSO: 1.0753

## CCOC(=O)c1cc(C(=O)OCC)c(=O)[nH]c1SCc1ccccc1 [MLS001008109-01]
[1]; 0.5 uM
  Burkin Assay in Myotubes, α7 integrin LacZ reporter signal relative to DMSO: 0.9247
[1]; 1 uM
  Burkin Assay in Myotubes, α7 integrin LacZ reporter signal relative to DMSO: 0.9146
[1]; 5 uM
  Burkin Assay in Myotubes, α7 integrin LacZ reporter signal relative to DMSO: 1.182
[1]; 10 uM
  Burkin Assay in Myotubes, α7 integrin LacZ reporter signal relative to DMSO: 0.9335
[1]; 20 uM
  Burkin Assay in Myotubes, α7 integrin LacZ reporter signal relative to DMSO: 0.8264
[1]; 40 uM
  Burkin Assay in Myotubes, α7 integrin LacZ reporter signal relative to DMSO: 0.6103
[2]; 0.5 uM
  Burkin Assay in Myoblasts, signal relative to DMSO: 0.8481
[2]; 1 uM
  Burkin Assay in Myoblasts, signal relative to DMSO: 0.78
[2]; 5 uM
  Burkin Assay in Myoblasts, signal relative to DMSO: 1.002
[2]; 10 uM
  Burkin Assay in Myoblasts, signal relative to DMSO: 0.8626
[2]; 20 uM
  Burkin Assay in Myoblasts, signal relative to DMSO: 0.826
[2]; 40 uM
  Burkin Assay in Myoblasts, signal relative to DMSO: 0.8306
[3]; 0.5 uM
  CMV-LACZ in Myoblasts (β-galactosidase activity relative to DMSO): 0.9542
[3]; 1 uM
  CMV-LACZ in Myoblasts (β-galactosidase activity relative to DMSO): 1.1138
[3]; 5 uM
  CMV-LACZ in Myoblasts (β-galactosidase activity relative to DMSO): 0.9228
[3]; 10 uM
  CMV-LACZ in Myoblasts (β-galactosidase activity relative to DMSO): 1.2178
[3]; 20 uM
  CMV-LACZ in Myoblasts (β-galactosidase activity relative to DMSO): 0.8730
[3]; 40 uM
  CMV-LACZ in Myoblasts (β-galactosidase activity relative to DMSO): 0.7619
[4]; 0.5 uM
  CMV-LACZ in Myotubes, signal relative to DMSO: 1.0621
[4]; 1 uM
  CMV-LACZ in Myotubes, signal relative to DMSO: 1.0168
[4]; 5 uM
  CMV-LACZ in Myotubes, signal relative to DMSO: 0.9839
[4]; 10 uM
  CMV-LACZ in Myotubes, signal relative to DMSO: 0.9289
[4]; 20 uM
  CMV-LACZ in Myotubes, signal relative to DMSO: 1.0756
[4]; 40 uM
  CMV-LACZ in Myotubes, signal relative to DMSO: 1.0600
